Experimental data reported in PMC4189182 (Journal of cardiac failure, 2014).

How the values were obtained:
[1] = in vivo; cited from earlier work
[2] = human, in vivo

- Halflife [2]: 14.4 min
- increase in Clearance associated with genotype at rs6798179 (MME) ([2]; iv): roughly 50%
- increase in K associated with genotype at rs6798179 (MME) ([2]; iv): roughly 50%
- range of Adjusted BNP Clearance ([2]; iv): 0.1 to 67 mL/min
- range of BNP Clearance ([2]; iv): 0.027 to 7.25 mL/min
- range of Half-life ([2]; iv): 6.6 to 56.4 min
- range of K ([2]; iv): 0.002-9.7
- range of ΔBNP ([2]; iv): 14 to 7900 pg/mL
- smaller change in BNP due to infusion associated with genotype at rs6798179 (MME) ([2]; iv): ~40%
Structure (SMILES): CC[C@H](C)[C@@H]1NC(=O)[C@H](CCCNC(=N)N)NC(=O)[C@H](CC(=O)O)NC(=O)[C@H](CCSC)NC(=O)[C@H](CCCCN)NC(=O)[C@H](CCCNC(=N)N)NC(=O)CNC(=O)[C@H](Cc2ccccc2)NC(=O)[C@@H](NC(=O)CNC(=O)[C@H](CO)NC(=O)CNC(=O)[C@H](CCC(N)=O)NC(=O)[C@@H](NC(=O)[C@H](CCSC)NC(=O)[C@H](CCCCN)NC(=O)[C@@H]2CCCN2C(=O)[C@@H](N)CO)C(C)C)CSSC[C@@H](C(=O)N[C@@H](CCCCN)C(=O)N[C@H](C(=O)N[C@@H](CC(C)C)C(=O)N[C@@H](CCCN=C(N)N)C(=O)N[C@@H](CCCN=C(N)N)C(=O)N[C@@H](Cc2cnc[nH]2)C(=O)O)C(C)C)NC(=O)CNC(=O)[C@H](CC(C)C)NC(=O)CNC(=O)[C@H](CO)NC(=O)[C@H](CO)NC(=O)[C@H](CO)NC(=O)[C@H](CO)NC1=O [nesiritide]
- previously reported average half-life [1]: roughly 18 minutes
